Data taken from patent US9707196B2, “Treatment agent and/or prophylactic agent for side effects of cancer drugs” (SBI Pharmaceuticals Co., Ltd., priority 2011, dated 2017).

What was measured:
SD rats [1] = test: Side effects accompanying cisplatin administration in rats, with or without ALA (Example 1: survival, kidney HE staining, hair luster, stool state, activity); format: in vivo, rat; details: for Damage to the kidney (HE staining, Day 16): FIG. 2
Procedure: Forty-four 6 weeks-old SD rats (male) were purchased from Japan SLC, Inc. They were used for experiments after conditioning for 7 days after purchase.
The experiment duration was a total of 16 days, and experiment groups were divided into the following 5 groups I to V according to the ALA administration condition. […] CDDP administration dose was 8.0 mg/kg of body weight, and each rat was intraperitoneally administered. Saline was administered instead of cisplatin to Group I as the negative control group. ALA was also administered to Groups III, […], and V according to the following schedule. On the other hand, no ALA was administered to the positive control group (Group II). ALA administration to Groups III, IV, and V was performed by daily oral administration of 10 mg/kg of body weight of ALA hydrochloride salt+15.7 mg/kg of body weight of sodium ferrous citrate (dissolved in distilled water and sodium bicarbonate).
(ALA Administration Conditions of Groups I to V)
Group I (negative control group): Saline was administered on Day 6 from the start of experiment. They were otherwise kept as usual. n=4
Group II (positive control group): CDDP was administered on Day 6 from the start of experiment. They were otherwise kept as usual. n=10
Group III (“pre-administration group”): ALA was administered for a total of 5 days from the starting day of experiment to Day 5. CDDP was also administered on Day 6. They were otherwise kept as usual. n=10
Group IV (“post-administration group”): On Day 6 from the start of experiment, ALA was administered, and then CDDP was administered. ALA was also administered for 10 days from Day 6 to Day 15. They were otherwise kept as usual. n=9
Group V (“full administration group”): ALA was administered for 15 days from the starting day of experiment to Day 15. On Day 6, ALA was administered, and then CDDP was administered. n=9
Blood was collected every two days for 15 days from the starting day of experiment to Day 15. Observation of hair luster, stool state, and activity of rats was also carried out. Each rat was also dissected on Day 16, and the kidney was resected. Kidney sections were prepared after resection, and observed under a microscope after HE staining.
Side effects were strongly observed from Day 9 to Day 13 from the starting day of experiment. Accordingly, the state on Days 9, 11, and 13 were scored and evaluated. Hair luster here evaluates the side effect related to skin symptoms. Stool state evaluates the side effect related to the gastrointestinal system. Activity evaluates the side effect related to general symptoms, in particular evaluates the side effect related to malaise.
Each item was evaluated for each mouse by the following criteria, and is the numerical value of the sum of the three days (Days 9, 11, and 13) divided by the number of evaluation subject mice.
5: Very good, 4: ordinarily state, 3: slightly poor, 2: poor, and 1: death
5: Ordinarily stool, 4: small amount of stool, 3: slight diarrhea, 2: diarrhea, and 1: death
5: Ordinarily state, 4: weak movement, 3: slight movement, 2: no movement, and 1: death

[2] = tested on: T24 cells (human transitional cell bladder cancer cells); test: Cell toxicity of cisplatin against T24 cells with or without ALA (WST-8, Cell Counting Kit-8); format: cell-based; details: ALA hydrochloride salt 200 μM + sodium ferrous citrate 100 μM, any timing, FIG. 8
Procedure: (§1) It was validated whether or not ALA administration has an influence on the cell toxicity (anticancer effect) of anticancer agent against cancer cells.
(§2) The following cancer cells were employed in this experiment: T24 cells (human transitional cell bladder cancer cells) and 253J-BV cells (human urinary tract epithelium cancer cells). […] ALA hydrochloride salt was employed as ALA. In addition, sodium ferrous citrate was administered together with ALA administration.
(§3) Cell toxicity at each concentration was compared in the following Groups I to IV.
(§4) Group I: “No addition group,” i.e. the group with no ALA administered
(§5) Group II: “Pre-administration group,” i.e. the group with ALA administered only “during preculture”
(§6) (1) T24 cells (human transitional cell bladder cancer cells) or 253J-BV cells (human urinary tract epithelium cancer cells) were cultured with a 10 cm dish in DMEM medium comprising 10% FBS to a subconfluent state. They were then collected by trypsin treatment.
(§7) (2) For test groups Group I (no addition group) and Group III (simultaneous administration group), the cells collected in (1) were suspended to a density of 50000 cells/ml in DMEM medium comprising 10% FBS. […]

SD rats [3] = test: Side effects on the kidney (nephrotoxicity) and weight loss accompanying cisplatin administration in rats, with or without ALA (Example 2); format: in vivo, rat; details: for Effect on side effects of anticancer agent on the kidney: FIGS. 4 to 6
Procedure: Serum creatinine and urea nitrogen value (BUN) were measured from blood samples. Moreover, urine protein was measured from urine samples.
Weight loss which is a side effect on general symptoms as well as a side effect related to the gastrointestinal system was also observed at the same time.
Forty-six 6 weeks-old SD rats (male) were purchased from Japan SLC, Inc. They were conditioned for 7 days after purchase. Body weight measurement, blood collection, and urine collection of each rat were performed at the end of the conditioning period. The experiment was started on the next day with 44 rats. Two individuals that had poor serum creatinine, urea nitrogen value (BUN), and urine protein value at the measurement after conditioning were excluded from the experiment.
In this experiment, experiment groups were divided into the following 4 groups I to IV according to the ALA administration condition. The experiment was otherwise performed similarly to Example 1.
Group I (negative control group): Saline was administered on Day 6 from the start of experiment. They were otherwise kept as usual. n=8
Group II (positive control group): CDDP was administered on Day 6 from the start of experiment. They were otherwise kept as usual. n=14
Group III (“post-administration group”): On Day 6 from the start of experiment, ALA was administered, and then CDDP was administered. ALA was also administered for 10 days from Day 6 to Day 15. They were otherwise kept as usual. n=10
Group IV (“full administration group”): ALA was administered for 15 days from the starting day of experiment to Day 15. On Day 6, ALA was administered, and then CDDP was administered. n=11
The body weight of each rat was measured, and blood and urine collection was carried out on starting day of experiment, Days 6, 7, 9, 11, 13, and 15. The collected blood samples were used for measuring serum creatinine and urea nitrogen value (BUN). In addition, the collected urine samples were used for measuring urine protein. Each rat was also dissected on Day 16, and the kidney was resected and observed.

[4] = tested on: 253J-BV cells (human urinary tract epithelium cancer cells); test: Cell toxicity of cisplatin against 253J-BV cells with or without ALA (WST-8, Cell Counting Kit-8); format: cell-based; details: ALA hydrochloride salt 200 μM + sodium ferrous citrate 100 μM, any timing, FIG. 9
Procedure: as §1, §2, §3, §4, §5, §6, §7

[5] = Case of an advanced colon cancer patient taking aminolevulinic acid phosphate salt and sodium ferrous citrate concurrently with anticancer agent therapy (Example 4); format: in vivo, human; details: one patient
[6] = Group III (pre-administration): ALA hydrochloride salt 10 mg/kg + sodium ferrous citrate 15.7 mg/kg oral daily to Day 5, CDDP 8.0 mg/kg i.p. Day 6, sum of scores of Days 9, 11, 13 per animal
[7] = Group IV (post-administration): ALA hydrochloride salt 10 mg/kg + sodium ferrous citrate 15.7 mg/kg oral daily Day 6 to Day 15, CDDP 8.0 mg/kg i.p. Day 6, sum of scores of Days 9, 11, 13 per animal
[8] = Group V (full administration): ALA hydrochloride salt 10 mg/kg + sodium ferrous citrate 15.7 mg/kg oral daily from starting day to Day 15, CDDP 8.0 mg/kg i.p. Day 6, sum of scores of Days 9, 11, 13 per animal
[9] = Groups III, IV and V (ALA + CDDP) versus Group II, FIG. 1

What does the source list for `N.N.[Cl][Pt][Cl]` [cisplatin, reference compound]?
Rat survival rate (SD rats [1]; Group II (positive control): CDDP 8.0 mg/kg i.p. Day 6, no ALA, FIG. 1): reduction in the survival rate was seen on Day 9; Hair luster (final evaluation) (SD rats [1]; Group II (positive control): CDDP 8.0 mg/kg i.p. on Day 6, no ALA, sum of scores (5 best, 1 death) of Days 9, 11, 13 divided by number of animals): 7.80

With `NCC(=O)CCC(=O)O` [ALA, 5-aminolevulinic acid] as the molecule, how does the “Influence of ALA administration on anticancer effect of cisplatin” value [2] read?
Its value is “hardly attenuated”.

What about the “Effect on weight loss” value (SD rats [3]; Group III (post-administration) + CDDP, FIG. 3) of the same molecule?
Its value is “a certain effect”.

What about the “Effect on side effects of anticancer agent on the kidney” value (SD rats [3]; Group III (post-administration) + CDDP) of the same molecule?
Its value is “a certain effect”.

What about the “Decrease in body weight” value (SD rats [3]; Group III (post-administration) and Group IV (full administration), ALA + CDDP, FIG. 3) of the same molecule?
Its value is “decreased in body weight due to the side effects from anticancer agent was suppressed”.

And the “Re-increase of body weight” value (SD rats [3]; Group III and Group IV, ALA + CDDP, FIG. 3)?
Its value is “re-increase of body weight was observed on Day 5 and after”.

And the Urine protein value (SD rats [3]; Group III and Group IV, ALA + CDDP, slight increase on Day 3, FIG. 6)?
The Urine protein value was “a value not much different from the negative control group was maintained”.

And the Serum creatinine value (SD rats [3]; Group III and Group IV, ALA + CDDP, slight increase on Day 5, FIG. 4)?
Its Serum creatinine value is “a value not much different from the negative control group was maintained”.

What about the “Urea nitrogen value (BUN)” value (SD rats [3]; Group III and Group IV, ALA + CDDP, slight increase on Day 5, FIG. 5) of the same molecule?
The value was “a value not much different from the negative control group was maintained”.

What about the “Effect on weight loss” value (SD rats [3]; Group IV (full administration) + CDDP, FIG. 3) of the same molecule?
The value was “the most effective”.

What about the “Effect on side effects of anticancer agent on the kidney” value (SD rats [3]; Group IV (full administration) + CDDP) of the same molecule?
Its value is “the most effective”.

And the “Influence of ALA administration on anticancer effect of cisplatin” value [4]?
Its value is “hardly attenuated”.

What about the “Damage to the kidney (HE staining, Day 16)” value (“Damage to the kidney” below) (SD rats [1]; ALA-administered groups + CDDP) of the same molecule?
Its value is “alleviated the damage to the kidney”.

And the “Damage to the kidney” value (SD rats [1]; Group III (pre-administration) and Group IV (post-administration) + CDDP)?
The value was “a certain effect”.

And the Rat survival rate (SD rats [1]; Group III (pre-administration) or Group IV (post-administration) + CDDP, FIG. 1)?
The Rat survival rate was “a certain suppression effect”.

And the “Activity (final evaluation)” value (SD rats [1]; [6])?
The value was 8.10.

And the “Hair luster (final evaluation)” value (SD rats [1]; [6])?
The value was 8.10.

What about the “Overall evaluation (final evaluation)” value (SD rats [1]; [6]) of the same molecule?
The value was 7.50.

What about the “Stool state (final evaluation)” value (SD rats [1]; [6]) of the same molecule?
Its value is 8.90.

And the “Activity (final evaluation)” value (SD rats [1]; [7])?
The value was 9.56.

And the “Hair luster (final evaluation)” value (SD rats [1]; [7])?
Its value is 8.89.

And the “Overall evaluation (final evaluation)” value (SD rats [1]; [7])?
Its value is 8.78.

What about the “Stool state (final evaluation)” value (SD rats [1]; [7]) of the same molecule?
Its value is 10.78.

And the “Damage to the kidney” value (SD rats [1]; Group V (full administration) + CDDP)?
Its value is “the most effective”.

What about the “Activity (final evaluation)” value (SD rats [1]; [8]) of the same molecule?
Its value is 11.33.

What about the “Hair luster (final evaluation)” value (SD rats [1]; [8]) of the same molecule?
Its value is 11.33.

And the “Overall evaluation (final evaluation)” value (SD rats [1]; [8])?
Its value is 9.67.

And the “Stool state (final evaluation)” value (SD rats [1]; [8])?
Its value is 13.33.

And the Rat survival rate (SD rats [1]; Group V (full administration, ALA throughout) + CDDP, FIG. 1)?
The Rat survival rate was “highest survival rate”.

And the “Rat survival rate until Day 16” value (SD rats [1]; [9])?
Its value is “reduction in the survival rate until Day 16 could be suppressed”.

And the “Timing of the start of reduction in the survival rate” value (SD rats [1]; [9])?
Its value is “the timing of the start of reduction in the survival rate was delayed”.

For aminolevulinic acid phosphate salt, which “Time for which anticancer agent therapy could be continued after the surgery” value ([5]; FOLFOX, FOLFIRI and Avastin with oral 50 mg aminolevulinic acid phosphate salt + 57.4 mg sodium ferrous citrate per day) is on record?
Its value is “one year”.

And the Hemoglobin ([5]; Jan. 28, 2011, about 1 year and 5 months after starting oral 50 mg aminolevulinic acid phosphate salt + 57.4 mg sodium ferrous citrate per day, just before surgery 9.80)?
The Hemoglobin was 12.20 g/dL.

What about the “Number of Leukocytes” value ([5]; Jan. 28, 2011, about 1 year and 5 months after starting oral 50 mg aminolevulinic acid phosphate salt + 57.4 mg sodium ferrous citrate per day, just before surgery 13.20) of the same molecule?
The value was 6200 µL⁻¹.

What about the “Number of Erythrocytes” value ([5]; Jan. 28, 2011, about 1 year and 5 months after starting oral 50 mg aminolevulinic acid phosphate salt + 57.4 mg sodium ferrous citrate per day, just before surgery (Aug. 19, 2009) 2.97) of the same molecule?
The value was 3.44e+06 µL⁻¹.

And the Anemia improvement effect ([5]; about 1 year and 5 months after starting intake, with sodium ferrous citrate)?
Its Anemia improvement effect is “anemia as a side effect of administration of anticancer agent is improved”.

And the Survival after surgery ([5]; declared life expectancy 3 months, oral 50 mg aminolevulinic acid phosphate salt + 57.4 mg sodium ferrous citrate per day)?
The Survival after surgery was “one and a half years”.
